Test results reported in US9781928B2, “Microbicidal composition” (Dow Global Technologies LLC, priority 2016, dated 2017).

Tested on: Desulfovibrio longus ATCC 51456
Assay: Biocidal efficacy (bacterial kill) and synergy of glutaraldehyde and surfactants against anaerobic sulfate-reducing bacteria
Format: cell-based
Details: 35° C., 10^6 to 10^7 CFU/mL, salt solution
Description: Surfactants and biocides were evaluated for synergy by determining the synergy index (S.I.) of the combination. Synergy index was calculated based on the concentration required to achieve a certain level of bacterial kill when the two antimicrobial compounds (A and B) alone and in combinations. The test organism was anaerobic sulfate-reducing bacteria Desulfovibrio longus ATCC #51456. Surf. A R^1O(CH2CH(CH3)O)5(CH2CH2O)6H Surf. B R^1O(CH2CH(CH3)O)5(CH2CH2O)9H where R^1 is 2-ethylhexyl.
Inside an anaerobic chamber (Bactron anaerobic chamber), a deoxygenated sterile salt solution (3.1183 g of NaCl, 1.3082 mg of NaHCO3, 47.70 mg of KCl, 72.00 mg of CaCl2, 54.49 mg of MgSO4, 172.28 mg of Na2SO4, 43.92 mg of Na2CO3 in 1 L water) was inoculated with Desulfovibrio longus ATCC 51456 to a final bacterial concentration of 10^6 to 10^7 CFU/mL. Aliquots of this cell suspension were then treated with glutaraldehyde, and each of Surf A and B at selected active concentrations. After incubation at 35° C. for 2 hours, viable bacteria in the aliquots were enumerated using serial dilution method.
SI is calculated as follows: Ca/CA+Cb/CB=Synergy Index (“SI”)
Wherein: • Ca=Concentration of biocide A required to achieve a certain level of bacterial kill when used in combination with B • CA=Concentration of biocide A required to achieve a certain level of bacterial kill when used alone • Cb=Concentration of biocide B required to achieve a certain level of bacterial kill when used in combination with A • CB=Concentration of biocide B required to achieve a certain level of bacterial kill when used alone When the sum of Ca/CA and Cb/CB is greater than one, antagonism is indicated.

For `O=CCCCC=O` [Glut, glutaraldehyde, (1,5-pentanedial) CAS No. 111-30-8], the “Concentration (active ppm) for complete bacterial kill in 2 hours, Glut” value (Glut concentration alone (1:0) or in combination with Surf. A) was 13.2 ppm and the “Concentration (active ppm) for 99.99% bacterial kill in 2 hours, Glut” value (Glut concentration alone (1:0) or in combination with Surf. B) was 5.9 ppm.

With “R^1O(CH2CH(CH3)O)5(CH2CH2O)6H where R^1 is 2-ethylhexyl [Surf. A]” the “Concentration (active ppm) for complete bacterial kill in 2 hours, Surf. A” value (Surf. A concentration alone (0:1) or in combination with Glut) was >100 ppm.

For “R^1O(CH2CH(CH3)O)5(CH2CH2O)9H where R^1 is 2-ethylhexyl [Surf. B]”, the “Concentration (active ppm) for 99.99% bacterial kill in 2 hours, Surf B” value (Surf. B concentration alone (0:1) or in combination with Glut) was >100 ppm.
